The target of assay [1] is Carbonic anhydrase 3 (Homo sapiens) (UniProt P07451).
In assay [2] the target is Carbonic anhydrase 13 (Mus musculus) (UniProt Q9D6N1). The assay is described as follows: Inhibition of mouse full length carbonic anhydrase 13.
The target in assay [3] is Carbonic anhydrase 5B, mitochondrial (Homo sapiens) (UniProt Q9Y2D0).
For assay [4], the target named is Carbonic anhydrase 6 (Homo sapiens) (UniProt P23280).
Assay [5] concerns the target Carbonic anhydrase 9 (Homo sapiens) (UniProt Q16790).
In assay [6] the target is Carbonic anhydrase 12 (Homo sapiens) (UniProt O43570).
Assay [7] concerns the target Carbonic anhydrase 14 (Homo sapiens) (UniProt Q9ULX7).
For assay [8], the target named is Carbonic anhydrase 4 (Homo sapiens) (UniProt P22748).
Assay [9] has as its target Carbonic anhydrase 5A, mitochondrial (Homo sapiens) (UniProt P35218).
In assay [10] the target is Carbonic anhydrase 2 (Homo sapiens) (UniProt P00918).
Assay [11] deals with Carbonic anhydrase 7 (Homo sapiens) (UniProt P43166).

This passage reports Ki results from ChEMBL document CHEMBL1144796, “Carbonic anhydrase inhibitors. Interaction of indapamide and related diuretics with 12 mammalian isozymes and X-ray crystallographic studies for the indapamide-isozyme II adduct” (Bioorg Med Chem Lett, 2008).

In general, Ki refers to the dissociation constant of the complex between target and ligand, obtained from inhibition or displacement. A low value points to a stronger hold on the target. For orientation: pKi means −log10 of the Ki, conventionally taken in molar units. A high value points to a small Ki.

pKi: −log10 of the molar value.

Sequence of Carbonic anhydrase 12 (Homo sapiens) (O43570 whole entry): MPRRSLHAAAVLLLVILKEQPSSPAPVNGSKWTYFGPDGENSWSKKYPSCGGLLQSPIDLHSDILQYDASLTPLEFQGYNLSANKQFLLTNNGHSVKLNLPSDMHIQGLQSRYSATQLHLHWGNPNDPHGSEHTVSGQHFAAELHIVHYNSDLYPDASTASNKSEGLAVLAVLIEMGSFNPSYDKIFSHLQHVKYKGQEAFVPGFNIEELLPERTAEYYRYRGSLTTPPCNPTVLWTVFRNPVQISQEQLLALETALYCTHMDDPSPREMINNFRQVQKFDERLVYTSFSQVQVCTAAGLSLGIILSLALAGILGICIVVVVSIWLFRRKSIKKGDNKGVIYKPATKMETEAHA
Sequence of Carbonic anhydrase 6 (Homo sapiens) (P23280 whole entry): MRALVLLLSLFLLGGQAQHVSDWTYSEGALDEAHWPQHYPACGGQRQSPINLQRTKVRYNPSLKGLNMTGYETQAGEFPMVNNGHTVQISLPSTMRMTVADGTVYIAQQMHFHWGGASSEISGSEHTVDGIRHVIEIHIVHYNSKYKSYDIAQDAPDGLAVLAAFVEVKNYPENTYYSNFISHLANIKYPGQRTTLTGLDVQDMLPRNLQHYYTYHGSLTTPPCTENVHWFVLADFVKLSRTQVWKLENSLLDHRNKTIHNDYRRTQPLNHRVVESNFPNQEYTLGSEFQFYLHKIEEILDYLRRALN
Sequence of Carbonic anhydrase 4 (Homo sapiens) (P22748 whole entry): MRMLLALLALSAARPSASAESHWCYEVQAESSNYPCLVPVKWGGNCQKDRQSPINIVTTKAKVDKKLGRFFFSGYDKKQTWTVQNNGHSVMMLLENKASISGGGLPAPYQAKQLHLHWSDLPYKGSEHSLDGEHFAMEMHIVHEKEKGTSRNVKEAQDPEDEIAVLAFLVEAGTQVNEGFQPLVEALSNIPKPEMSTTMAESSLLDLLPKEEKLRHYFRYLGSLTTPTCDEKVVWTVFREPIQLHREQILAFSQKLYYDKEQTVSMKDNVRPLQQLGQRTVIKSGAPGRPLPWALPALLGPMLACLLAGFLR
Sequence of Carbonic anhydrase 5B, mitochondrial (Homo sapiens) (Q9Y2D0 whole entry): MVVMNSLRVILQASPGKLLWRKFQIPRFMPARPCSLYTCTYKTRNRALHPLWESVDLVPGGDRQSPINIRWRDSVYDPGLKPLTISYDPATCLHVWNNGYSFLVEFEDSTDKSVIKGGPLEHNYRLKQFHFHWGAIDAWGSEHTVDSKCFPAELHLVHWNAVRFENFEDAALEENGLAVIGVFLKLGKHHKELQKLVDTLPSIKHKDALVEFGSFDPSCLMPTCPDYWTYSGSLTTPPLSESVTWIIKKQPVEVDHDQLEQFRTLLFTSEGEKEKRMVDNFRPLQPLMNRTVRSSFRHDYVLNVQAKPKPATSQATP
Sequence of Carbonic anhydrase 14 (Homo sapiens) (Q9ULX7 whole entry): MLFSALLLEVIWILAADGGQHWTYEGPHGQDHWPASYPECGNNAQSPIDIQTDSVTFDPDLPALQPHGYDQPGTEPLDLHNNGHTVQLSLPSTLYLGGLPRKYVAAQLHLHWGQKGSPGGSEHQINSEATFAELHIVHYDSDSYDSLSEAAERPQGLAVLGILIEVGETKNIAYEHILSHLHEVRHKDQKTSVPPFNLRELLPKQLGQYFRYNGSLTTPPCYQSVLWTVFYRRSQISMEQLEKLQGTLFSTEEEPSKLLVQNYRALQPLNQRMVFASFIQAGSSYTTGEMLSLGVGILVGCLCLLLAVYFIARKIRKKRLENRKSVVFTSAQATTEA
Sequence of Carbonic anhydrase 13 (Mus musculus) (Q9D6N1 whole entry, looked up): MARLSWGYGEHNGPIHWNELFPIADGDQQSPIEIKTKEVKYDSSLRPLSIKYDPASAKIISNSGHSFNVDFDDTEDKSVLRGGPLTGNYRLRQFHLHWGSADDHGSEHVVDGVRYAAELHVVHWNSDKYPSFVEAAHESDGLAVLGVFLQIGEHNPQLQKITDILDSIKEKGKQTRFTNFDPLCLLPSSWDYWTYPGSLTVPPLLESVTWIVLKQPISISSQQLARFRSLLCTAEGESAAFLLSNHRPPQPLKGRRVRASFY
Sequence of Carbonic anhydrase 7 (Homo sapiens) (P43166 whole entry): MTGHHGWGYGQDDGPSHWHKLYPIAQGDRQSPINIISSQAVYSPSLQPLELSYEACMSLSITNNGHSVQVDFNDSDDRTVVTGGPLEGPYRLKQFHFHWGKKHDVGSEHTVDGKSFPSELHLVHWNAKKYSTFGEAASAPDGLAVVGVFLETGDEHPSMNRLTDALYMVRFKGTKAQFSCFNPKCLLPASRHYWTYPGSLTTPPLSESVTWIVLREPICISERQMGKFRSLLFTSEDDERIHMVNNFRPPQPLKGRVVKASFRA
Sequence of Carbonic anhydrase 5A, mitochondrial (Homo sapiens) (P35218 whole entry): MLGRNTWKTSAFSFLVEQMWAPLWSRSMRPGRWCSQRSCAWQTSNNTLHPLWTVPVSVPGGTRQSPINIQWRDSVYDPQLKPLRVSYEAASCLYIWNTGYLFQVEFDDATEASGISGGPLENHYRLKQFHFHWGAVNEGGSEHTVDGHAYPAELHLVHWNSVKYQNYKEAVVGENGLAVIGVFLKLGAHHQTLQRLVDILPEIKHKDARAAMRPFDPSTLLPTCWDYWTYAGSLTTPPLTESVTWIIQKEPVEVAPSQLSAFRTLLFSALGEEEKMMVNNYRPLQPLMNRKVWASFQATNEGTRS
Sequence of Carbonic anhydrase 3 (Homo sapiens) (P07451 whole entry): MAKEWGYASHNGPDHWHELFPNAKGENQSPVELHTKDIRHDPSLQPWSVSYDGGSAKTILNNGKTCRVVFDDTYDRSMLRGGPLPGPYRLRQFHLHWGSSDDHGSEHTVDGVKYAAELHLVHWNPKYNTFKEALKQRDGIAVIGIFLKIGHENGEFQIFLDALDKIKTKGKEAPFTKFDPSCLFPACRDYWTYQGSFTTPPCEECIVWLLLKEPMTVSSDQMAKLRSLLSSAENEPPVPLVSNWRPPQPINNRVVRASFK

For the compound `NS(=O)(=O)c1cc(C(=O)O)c(NCc2ccco2)cc1Cl`, the Ki in assay [1] is > 2 10^5nM.

Turning to `CC1Nc2cc(Cl)c(S(N)(=O)=O)cc2S(=O)(=O)N1C` (stereo not drawn), the pKi in assay [2] was 5.41; in assay [3] it was 6.22; in assay [4], 5.44; in assay [5], 6.44; in [6] it was 6.45; in [7], 5.39. For the same compound, the pKi in assay [8] is 6.37; in [9], 5.37. The Ki in assay [1] is > 2 10^5nM.

Take `CC(=O)/N=c1/sc(S(N)(=O)=O)nn1C`: the Ki in assay [1] was > 2 10^5nM.

Regarding `CCC1NC(=O)c2cc(S(N)(=O)=O)c(Cl)cc2N1` (stereo not drawn), the pKi in [10] was 5.90.

As for `CCCCNc1cc(C(=O)O)cc(S(N)(=O)=O)c1Oc1ccccc1`, the pKi is 5.59 in assay [2]; 6.80 in assay [3]; 5.41 in [4]; 7.21 in assay [11]; 7.59 in assay [5]; 7.68 in [6]. The pKi in [7] is 6.60; in assay [10], 5.16; in [8] it was 6.52; in assay [9], 6.15. Besides, in [1], the Ki was > 2 10^5nM.

Take `NS(=O)(=O)c1cc(C2(O)NC(=O)c3ccccc32)ccc1Cl` (stereo not drawn): the pKi is 7.82 in assay [2]; 8.05 in assay [3]; 5.87 in assay [4]; 8.55 in assay [11]; 7.64 in assay [5]; 5.38 in assay [7]. Moreover, the pKi was 6.86 in [10], 6.71 in assay [8] and 6.04 in assay [9].

As for `Cc1ccccc1N1C(=O)c2cc(S(N)(=O)=O)c(Cl)cc2NC1C` (stereo not drawn), the pKi in assay [2] was 7.82; in assay [3] it was 6.51; in [4], 5.77; in [5] it was 6.49; in assay [6], 8.27; in assay [7], 5.27. Moreover, the pKi is 5.70 in assay [10], 6.67 in assay [8] and 6.12 in assay [9]. Moreover, the Ki in assay [1] was > 2 10^5nM.

For `CC1Nc2cc(C(F)(F)F)c(S(N)(=O)=O)cc2S(=O)(=O)N1C` (stereo not drawn), the pKi in [2] is 4.81; in assay [3] it was 6.37; in [4], 5.08; in assay [11], 6.36; in [5] it was 6.39; in assay [6] it was 6.52. The pKi in assay [7] was 6.44; in [10] it was 6.36; in assay [8], 5.32; in assay [9] it was 4.99. Further, the Ki in [1] is > 2 10^5nM.
